Experimental data from the supplement of paper PMC8882468.
± gives the standard deviation of the averaged measurements.

How the values were obtained:
Assay in all cases: CTG-3D luminescence at 96 h relative to day-0 seeding control (ratio to day 0); higher = more growth / less cytotoxicity; PDxO 3D drug screen, 96 h, CTG-3D normalised to day-0 seeding control.
[1] = system: HCI-016 (organoid from a triple-negative breast cancer xenograft)
[2] = system: HCI-019 (organoid from a triple-negative breast cancer xenograft)
[3] = system: HCI-008 (organoid from a HER2-enriched breast cancer xenograft)
[4] = system: HCI-010 (organoid from a breast cancer xenograft)
[5] = system: HCI-025 (organoid from a breast cancer xenograft)
[6] = system: HCI-027 (organoid from a triple-negative breast cancer xenograft)

CCN1CCN(Cc2ccc(Nc3ncc(F)c(-c4cc(F)c5nc(C)n(C(C)C)c5c4)n3)nc2)CC1 [abemaciclib]
CTG-3D luminescence at 96 h
Conditions	12.5 pM	0.00025 µM	0.005 µM	0.1 µM	1 µM	10 µM	100 µM	625 fM
[1], days in culture: 153	2.82	2.09	2.87	1.71	1.14	0.355	0.0128	2.64
[1], days in culture: 172	2.12	1.72	1.43	1.67	1.25	0.322	0.0115	1.34
[1], days in culture: 190	1.98	1.4	1.32	1.35	1.26	0.196	0.00813	1.43
[1], days in culture: 199	1.89	1.75	2.03	1.74	1.21	0.0238	0.00916	1.85
[2], days in culture: 110	2.26	1.44	1.96	2.43	1.42	0.433	0.016	2.64
[2], days in culture: 131	2.45	3.28	2.99	4.2	2.75	1.9	0.0216	2.87
[2], days in culture: 152	3.44	2.78	2.45	2.58	2.13	0.0403	0.012	2.48
[3], days in culture: 228	1.42 ± 0.18	1.63 ± 0.16	1.38 ± 0.49	1.89 ± 0.48	1.86 ± 0.65	1.53 ± 0.075	0.0137 ± 0.0018	1.79 ± 0.36
[3], days in culture: 244	1.57	2.05	1.87	2.13	2.12	2.51	0.0231	2.52
[4], days in culture: 52	1.92	2.34	2.3	2.47	1.99	0.77	0.0133	2.09
[4], days in culture: 65	1.68	1.83	2.02	1.78	1.2	0.0257	0.00729	1.65
[4], days in culture: 103	3.48	3.18	3.28	3.44	3.5	2.6	0.0301	2.98
[5], days in culture: 172	3.01	1.55	3.2	2.1	2.55	1.91	0.0181	2.18
[5], days in culture: 209	2.03	1.8	1.98	2.2	2.46	1.27	0.0124	1.49
[5], days in culture: 218	1.37	1.71	1.83	1.55	1.46	1.84	0.0142	1.33
[6], days in culture: 176	2.08	1.51	2.54	2.32	1.53	0.242	0.0171	1.82
[6], days in culture: 194	1.66	1.49	1.8	1.97	1.87	1.39	0.0205	1.89
[6], days in culture: 201	2.8	2.7	2.69	2.54	2.15	1.35	0.018	2.37

CNC(=O)c1cccc(-c2ccc3c(N4CCOC[C@@H]4C)nc(N4CCOC[C@@H]4C)nc3n2)c1 [vistusertib]
CTG-3D luminescence at 96 h
Conditions	12.5 pM	0.00025 µM	0.005 µM	0.1 µM	1 µM	10 µM	100 µM	625 fM
[1], days in culture: 153	2.83	1.97	2.44	1.36	1.01	1.52	0.486	1.72
[1], days in culture: 172	2.41	1.96	1.67	1.67	0.7	0.422	0.424	1.42
[1], days in culture: 190	1.92	1.44	1.77	1.19	0.838	0.424	0.374	1.44
[1], days in culture: 199	1.72	1.65	1.77	1.76	0.654	0.556	0.348	1.81
[2], days in culture: 110	1.84	1.95	1.82	1.67	0.591	0.882	0.492	2.38
[2], days in culture: 131	2.64	4.03	2.46	2.64	0.938	1.24	0.736	3.83
[2], days in culture: 152	2.51	2.65	3.11	1.64	0.846	0.759	0.555	2.52
[3], days in culture: 228	1.54 ± 0.38	1.64 ± 0.24	1.41 ± 0.54	0.913 ± 0.07	0.71 ± 0.13	0.548 ± 0.015	0.289 ± 0.032	1.66 ± 0.096
[3], days in culture: 244	1.33	1.73	2.19	1.74	1.08	0.812	0.329	2.1
[4], days in culture: 52	2.1	2.32	2.14	1.57	0.904	0.76	0.17	2.19
[4], days in culture: 65	1.67	1.73	1.69	1.14	0.708	0.543	0.0432	1.68
[4], days in culture: 103	3.33	3.37	3.25	1.95	1.51	1.24	0.419	3.04
[5], days in culture: 172	2.8	1.41	1.7	0.95	0.649	0.279	0.41	2.26
[5], days in culture: 209	1.74	2.05	2.28	0.89	0.395	0.287	0.239	2.1
[5], days in culture: 218	1.49	1.78	1.94	0.816	0.249	0.373	0.201	1.44
[6], days in culture: 176	2.07	1.54	3.05	1.73	0.81	0.32	0.123	2.96
[6], days in culture: 194	1.93	1.49	1.77	1.58	1.03	0.803	0.226	1.84
[6], days in culture: 201	1.74	2.52	2.47	2.11	1.06	0.501	0.169	2.26

CC[C@H](NC(=O)[C@H](C)NC)C(=O)N1C[C@@H](O)C[C@H]1Cc1c(-c2[nH]c3cc(F)ccc3c2C[C@@H]2C[C@H](O)CN2C(=O)[C@H](CC)NC(=O)[C@H](C)NC)[nH]c2cc(F)ccc12 [birinapant]
CTG-3D luminescence at 96 h
Conditions	12.5 pM	0.00025 µM	0.005 µM	0.1 µM	1 µM	10 µM	100 µM	625 fM
[1], days in culture: 153	2.99	2.23	2.64	2.39	2.94	2.86	0.41	2.37
[1], days in culture: 172	2.25	1.67	1.82	1.23	1.56	1.24	0.122	1.58
[1], days in culture: 190	1.66	1.27	1.52	1.09	1.38	1.36	0.309	0.99
[1], days in culture: 199	1.54	1.36	1.44	1.52	1.54	1.23	0.204	1.7
[2], days in culture: 110	1.9	2.21	1.18	0.993	0.634	1.01	0.351	1.87
[2], days in culture: 131	2.64	3.89	2.09	3.03	1.34	2.65	0.638	3.16
[2], days in culture: 152	2.72	2	2.1	1.49	0.853	1.05	0.336	1.84
[3], days in culture: 228	1.3 ± 0.2	1.73 ± 0.48	0.611 ± 0.22	0.11 ± 0.23	0.147 ± 0.19	0.206 ± 0.13	0.162 ± 0.073	1.43 ± 0.37
[3], days in culture: 244	1.27	1.82	1.05	0.549	0.521	0.713	0.51	2.04
[4], days in culture: 52	2.04	2.47	2.12	2.26	1.6	1.52	1.05	2.18
[4], days in culture: 65	1.7	1.59	1.72	1.47	1.43	1.23	0.618	1.66
[4], days in culture: 103	3.3	3.66	3.43	2.74	2.62	2.1	0.973	2.9
[5], days in culture: 172	2.24	1.37	1.16	0.15	0.319	0.166	0.0157	1.82
[5], days in culture: 209	1.87	1.95	1.01	0.628	0.388	0.374	0.241	1.9
[5], days in culture: 218	1.84	1.78	1.79	1.23	0.859	0.811	0.542	1.83
[6], days in culture: 176	1.24	1.19	1.69	1.22	1.62	1.08	0.00679	1.18
[6], days in culture: 194	1.58	1.02	0.983	0.99	1.14	1.31	0.129	1.53
[6], days in culture: 201	1.64	1.19	1.14	0.985	0.933	1.13	0.11	1.76

O=C(/C=C/c1cccnc1)NCCCCC1CCN(C(=O)c2ccccc2)CC1 [FK866]
CTG-3D luminescence at 96 h
Conditions	12.5 pM	0.00025 µM	0.005 µM	0.1 µM	1 µM	10 µM	100 µM	625 fM
[1], days in culture: 153	2.99	0.401	0.569	0.026	0.0254	0.0134	0.0183	2.29
[1], days in culture: 172	2.21	1.75	0.508	0.0341	0.0259	0.0131	0.022	1.55
[1], days in culture: 190	1.78	1.44	0.967	0.0245	0.0257	0.0168	0.037	1.08
[1], days in culture: 199	1.45	1.44	0.503	0.0273	0.0129	0.013	0.0134	1.79
[2], days in culture: 110	2.11	0.4	0.0804	0.0554	0.0484	0.0475	0.042	2.64
[2], days in culture: 131	1.91	1.42	0.669	0.542	0.448	0.436	0.137	3.64
[2], days in culture: 152	1.88	1.08	0.557	0.476	0.267	0.142	0.0796	1.93
[3], days in culture: 228	1.646 ± 0.0026	1.91 ± 0.069	0.904 ± 0.53	0.206 ± 0.072	0.125 ± 0.022	0.168 ± 0.049	0.162 ± 0.077	1.38 ± 0.11
[3], days in culture: 244	1.37	1.87	1.86	0.263	0.186	0.197	0.173	1.82
[4], days in culture: 52	2.32	2.72	1.25	0.204	0.17	0.139	0.119	2.36
[4], days in culture: 65	1.59	1.73	0.682	0.29	0.227	0.202	0.166	1.66
[4], days in culture: 103	3.4	3.45	2.07	0.97	0.904	0.705	0.347	3.29
[5], days in culture: 172	3.12	0.0766	0.075	0.0447	0.0404	0.0184	-0.00051	2.06
[5], days in culture: 209	2.08	1.82	0.314	0.0825	0.0624	0.0413	0.0255	2.16
[5], days in culture: 218	1.78	2.01	0.0772	0.031	0.013	0.00874	0.00784	1.85
[6], days in culture: 176	1.98	1.8	0.365	0.104	0.104	0.0553	0.082	2.22
[6], days in culture: 194	1.77	1.47	0.26	0.049	0.0511	0.0527	0.0718	1.63
[6], days in culture: 201	1.55	1.66	0.166	0.0645	0.0296	0.0561	0.0649	1.74
